Experimental data as given in ChEMBL document CHEMBL3045040, “Synthesis and antiproliferative activity of 1-[(sub)]-6-fluoro-3-[(sub)]-1, 3,4-oxadiazol-2-yl-7-piperazino-1, 4-dihydro-4-quinolinone derivatives” (Med Chem Res, 2007).
In brackets after ≈: the same amount, converted by molar mass.

The compounds below were run on A549 (assay: Cytotoxicity against Homo sapiens (human) A549 cells assessed as cell viability by MTT assay).
Assay type: functional, cell-based

In order of falling IC50:
1. CCn1cc(-c2nnc(COc3cccc4ccccc34)o2)c(=O)c2cc(F)c(N3CCNCC3)cc21  127 µg/mL (≈ 254 µM)
2. CCn1cc(-c2nnc(Cc3ccccc3)o2)c(=O)c2cc(F)c(N3CCNCC3)cc21  118 µg/mL (≈ 273 µM)
3. CCn1cc(-c2nnc(-c3ccccc3)o2)c(=O)c2cc(F)c(N3CCNCC3)cc21  112 µg/mL (≈ 267 µM)
4. O=c1c(-c2nnc(COc3cccc4ccccc34)o2)cn(C2CC2)c2cc(N3CCNCC3)c(F)cc12  96.2 µg/mL (≈ 188 µM)
5. CCn1cc(-c2nnc(-c3ccc(Nc4ccccc4)cc3)o2)c(=O)c2cc(F)c(N3CCNCC3)cc21  88.6 µg/mL (≈ 174 µM)
6. O=c1c(-c2nnc(Cc3ccccc3)o2)cn(C2CC2)c2cc(N3CCNCC3)c(F)cc12  86 µg/mL (≈ 193 µM)
7. CCn1cc(-c2nnc(COc3ccc4ccccc4c3)o2)c(=O)c2cc(F)c(N3CCNCC3)cc21  80.2 µg/mL (≈ 161 µM)
8. CCn1cc(-c2nnc(COc3ccccc3)o2)c(=O)c2cc(F)c(N3CCNCC3)cc21  76.8 µg/mL (≈ 171 µM)
9. CCn1cc(-c2nnc(-c3ccc([N+](=O)[O-])cc3)o2)c(=O)c2cc(F)c(N3CCNCC3)cc21  74.3 µg/mL (≈ 160 µM)
10. O=c1c(-c2nnc(-c3ccc(Nc4ccccc4)cc3)o2)cn(C2CC2)c2cc(N3CCNCC3)c(F)cc12  52 µg/mL (≈ 99.5 µM)
11. O=c1c(-c2nnc(COc3ccccc3)o2)cn(C2CC2)c2cc(N3CCNCC3)c(F)cc12  48.6 µg/mL (≈ 105 µM)
12. O=c1c(-c2nnc(-c3ccccc3)o2)cn(C2CC2)c2cc(N3CCNCC3)c(F)cc12  46 µg/mL (≈ 107 µM)
13. CN(C)/N=N/c1[nH]cnc1C(N)=O [DACARBAZINE]  35 µg/mL (≈ 192 µM)
14. O=c1c(-c2nnc(COc3ccc4ccccc4c3)o2)cn(C2CC2)c2cc(N3CCNCC3)c(F)cc12  16 µg/mL (≈ 31.3 µM)
15. O=c1c(-c2nnc(-c3ccc([N+](=O)[O-])cc3)o2)cn(C2CC2)c2cc(N3CCNCC3)c(F)cc12  8 µg/mL (≈ 16.8 µM)
